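Grown in 96-well plates, cells were treated for 48 hours with each compound at five concentrations. Insufficient inhibition: endpoint recorded as highest concentration tested. GI50 is the concentration that inhibits growth by half.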 Calls of active or inactive are those of the source. No stated cut-off is given here; in the data, active = GI50 up to about 1.1 µM and inactive = higher.
Assays:
Experiment in all cases: NCI anticancer screen, dose series, 48 h
A549 = tested on: A549
CCRF-CEM = tested on: CCRF-CEM
HCC 2998 = tested on: HCC 2998
Hs-578T = tested on: Hs-578T
K562 = tested on: K562
M14 = tested on: M14
MDA-N = tested on: MDA-N
NCI/ADR-RES = tested on: NCI/ADR-RES
OVCAR-4 = tested on: OVCAR-4
OVCAR-5 = tested on: OVCAR-5
RPMI-8226 = tested on: RPMI-8226
SK-MEL-5 = tested on: SK-MEL-5
SK-OV-3 = tested on: SK-OV-3
SN12C = tested on: SN12C
T47D = tested on: T47D
U-251 = tested on: U-251
UACC-257 = tested on: UACC-257
UACC-62 = tested on: UACC-62
SR = tested on: SR

| SMILES | GI50 (A549) | GI50 (CCRF-CEM) | GI50 (HCC 2998) | GI50 (Hs-578T) | GI50 (K562) | GI50 (M14) | GI50 (MDA-N) | GI50 (NCI/ADR-RES) | GI50 (OVCAR-4) | GI50 (OVCAR-5) | GI50 (RPMI-8226) | GI50 (SK-MEL-5) | GI50 (SK-OV-3) | GI50 (SN12C) | GI50 (T47D) | GI50 (U-251) | GI50 (UACC-257) | GI50 (UACC-62) | GI50 (SR) |
| --- | --- | --- | --- | --- | --- | --- | --- | --- | --- | --- | --- | --- | --- | --- | --- | --- | --- | --- | --- |
| COc1ccc(C2OC(c3ccncc3)=NN2C)cc1OC (configuration not stated) | > 100 µM (inactive) | > 100 µM (inactive) | > 100 µM (inactive) | 67 µM (inactive) | > 100 µM (inactive) | > 100 µM (inactive) | > 100 µM (inactive) | > 100 µM (inactive) | > 100 µM (inactive) | > 100 µM (inactive) | > 100 µM (inactive) | 92.5 µM (inactive) | > 100 µM (inactive) | > 100 µM (inactive) | 67.1 µM (inactive) | > 100 µM (inactive) | > 100 µM (inactive) | > 100 µM (inactive) |  |
| CCOC(=O)c1ccc(/N=C/C=C(\Nc2ccc(C(=O)OCC)cc2)C23CC4CC(CC(C4)C2)C3)cc1 | 50.6 µM (inactive) |  | 91.2 µM (inactive) | > 100 µM (inactive) | 4.05 µM (inactive) | 35.8 µM (inactive) | 61.1 µM (inactive) | > 100 µM (inactive) | 70 µM (inactive) | 35.8 µM (inactive) |  | 30.6 µM (inactive) | > 100 µM (inactive) | 53.2 µM (inactive) | 18.3 µM (inactive) | > 100 µM (inactive) | 35.9 µM (inactive) | 31 µM (inactive) | 11.1 µM (inactive) |
| Cc1cc2c(cc1Cl)Sc1nnc(Nc3ccccc3)n1S2(=O)=O | 12.1 µM (inactive) |  | 3.96 µM (inactive) | 3.15 µM (inactive) | 8.69 µM (inactive) | 14.1 µM (inactive) | 6.05 µM (inactive) | 6.22 µM (inactive) | 6.89 µM (inactive) | 31.9 µM (inactive) | 2.61 µM (inactive) | 11.7 µM (inactive) |  |  | 7.78 µM (inactive) | 3.75 µM (inactive) | 16.6 µM (inactive) |  | 2.59 µM (inactive) |
| Cc1cc2c(cc1Cl)SC(NNc1cnc3ccccc3n1)=NS2(=O)=O | 78.9 µM (inactive) | 46.8 µM (inactive) | 67.9 µM (inactive) | 51.9 µM (inactive) | 73.3 µM (inactive) | 74.1 µM (inactive) | 90.2 µM (inactive) | > 100 µM (inactive) | 56.8 µM (inactive) | > 100 µM (inactive) |  | 66.7 µM (inactive) | 44.2 µM (inactive) | 88.3 µM (inactive) | 55.1 µM (inactive) | 48.6 µM (inactive) | 72.8 µM (inactive) | 60.7 µM (inactive) |  |
| CN(C)CCNc1ccc(NCC[N+](C)(C)Cc2ccc([N+](=O)[O-])cc2)c2c1C(=O)c1c(O)ccc(O)c1C2=O |  | 11.5 µM (inactive) | > 10 µM (inactive) | 28.9 µM (inactive) | 6.08 µM (inactive) |  | 20.7 µM (inactive) | > 100 µM (inactive) | > 100 µM (inactive) |  | 7.57 µM (inactive) | 10.8 µM (inactive) |  | 12.2 µM (inactive) | 36.3 µM (inactive) | 34 µM (inactive) |  | 31.6 µM (inactive) |  |
| CCOC(=O)/C(C#N)=N\Nc1ccc(-n2c(C)nc3ccc(Br)cc3c2=O)cc1 | 50.2 µM (inactive) | 33.2 µM (inactive) |  | 51.3 µM (inactive) | 35.6 µM (inactive) | 69.5 µM (inactive) | > 100 µM (inactive) | 62.4 µM (inactive) |  | > 100 µM (inactive) | 30.3 µM (inactive) | 25.6 µM (inactive) | > 100 µM (inactive) | 63.8 µM (inactive) | 34.2 µM (inactive) | 91.2 µM (inactive) | > 100 µM (inactive) | 85.5 µM (inactive) | 19.7 µM (inactive) |
| C[n+]1cccc2ccc(OC(=O)c3ccccc3)cc21 | > 100 µM (inactive) | > 10 µM (inactive) |  | > 100 µM (inactive) | > 100 µM (inactive) | > 100 µM (inactive) | > 100 µM (inactive) | > 100 µM (inactive) | > 100 µM (inactive) | > 100 µM (inactive) | > 100 µM (inactive) | > 100 µM (inactive) | > 100 µM (inactive) | > 100 µM (inactive) | > 100 µM (inactive) |  | > 100 µM (inactive) | > 100 µM (inactive) |  |
| CC1=CC[C@@]2(CO)[C@@H]([C@@H]1C)[C@H]1CC[C@@H]3[C@@]4(C)CC[C@H](O)C(C)(C)[C@@H]4CC[C@@]3(C)[C@]1(C)C[C@@H]2O | 15.9 µM (inactive) | 41.1 µM (inactive) |  | 15.8 µM (inactive) | 45.7 µM (inactive) | 28.2 µM (inactive) | 81.7 µM (inactive) | 27.1 µM (inactive) | 20.8 µM (inactive) | > 100 µM (inactive) |  | 13 µM (inactive) | 14.4 µM (inactive) | 75.3 µM (inactive) | 11.9 µM (inactive) | 14.4 µM (inactive) | 27.2 µM (inactive) | 20.9 µM (inactive) |  |
| COc1ccc(/C=N/NC(=S)Nc2cc(C)ccc2OC)cc1 | 45.1 µM (inactive) | 22.3 µM (inactive) |  | 78.5 µM (inactive) | 0.63 µM (active) | 23.1 µM (inactive) | 21.1 µM (inactive) | 41.9 µM (inactive) | 23.8 µM (inactive) | 16.9 µM (inactive) | 11.1 µM (inactive) | 15.6 µM (inactive) | 51.8 µM (inactive) | 25.1 µM (inactive) | 32.9 µM (inactive) |  |  | 36.1 µM (inactive) | 9.08 µM (inactive) |
| COc1ccc(-c2cc(-c3ccccc3)c3c(n2)-c2ccccc2NC(=O)C3)cc1 | 49.4 µM (inactive) |  | 53 µM (inactive) | 5.15 µM (inactive) | 1.47 µM (inactive) | 71 µM (inactive) | 30 µM (inactive) | 36.5 µM (inactive) | 3.64 µM (inactive) | > 100 µM (inactive) | > 100 µM (inactive) | 23.8 µM (inactive) | 39.9 µM (inactive) | 58.6 µM (inactive) | 74 µM (inactive) | 22.5 µM (inactive) | > 100 µM (inactive) | 98.2 µM (inactive) |  |
| Cc1ccc2c(=O)c(C(=O)N(CCO)CCO)c[nH]c2n1 | > 100 µM (inactive) | > 100 µM (inactive) |  | > 100 µM (inactive) | > 100 µM (inactive) | > 100 µM (inactive) | > 100 µM (inactive) | > 100 µM (inactive) | > 100 µM (inactive) | > 100 µM (inactive) | > 100 µM (inactive) | > 100 µM (inactive) |  | > 100 µM (inactive) | > 100 µM (inactive) | > 100 µM (inactive) | > 100 µM (inactive) | > 100 µM (inactive) |  |
| CSc1ccc(/C=C2\N=C(c3ccccc3)N(c3nc4ccc(Sc5ccccc5)cc4[nH]3)C2=O)cc1 | 35.5 µM (inactive) | 27.4 µM (inactive) | 16.7 µM (inactive) | 18.6 µM (inactive) | 14 µM (inactive) | 15.3 µM (inactive) | 3.37 µM (inactive) | 19.4 µM (inactive) | 30.9 µM (inactive) | 26.2 µM (inactive) | 20.2 µM (inactive) | 13.3 µM (inactive) | 14.7 µM (inactive) | 21.7 µM (inactive) | 20.5 µM (inactive) | 16.7 µM (inactive) | 13.9 µM (inactive) | 14.2 µM (inactive) |  |
| c1cc2c(cc1C1=NCCN1)c1cc(C3=NCCN3)ccc1n2CC1CCCCC1 | 19.1 µM (inactive) | 11.5 µM (inactive) |  | 6.19 µM (inactive) | 14.8 µM (inactive) | 33.6 µM (inactive) | 23.6 µM (inactive) | > 100 µM (inactive) | 22.5 µM (inactive) | 22.1 µM (inactive) | 22.7 µM (inactive) | 11.9 µM (inactive) | 18.5 µM (inactive) | 14 µM (inactive) | 19.1 µM (inactive) | 6.58 µM (inactive) | 22.7 µM (inactive) |  | 7.26 µM (inactive) |
| O=C1/C(=C/C=C/c2ccccc2)N=C(c2ccccc2)N1c1ccc(S(=O)(=O)Nc2nccs2)cc1 | 31.8 µM (inactive) | 32.4 µM (inactive) |  | 37.8 µM (inactive) | 40.2 µM (inactive) | 26.4 µM (inactive) | 27.7 µM (inactive) | > 100 µM (inactive) | 30 µM (inactive) | 31.6 µM (inactive) | 21.9 µM (inactive) | 20.6 µM (inactive) | 28.1 µM (inactive) | 30 µM (inactive) | 27.6 µM (inactive) | 17.9 µM (inactive) | 34.6 µM (inactive) | 18.2 µM (inactive) | 30.9 µM (inactive) |
| NS(=O)(=O)c1nnc(NC(=O)c2ccccc2)s1 | > 100 µM (inactive) |  | > 100 µM (inactive) | > 100 µM (inactive) | > 100 µM (inactive) | > 100 µM (inactive) | > 100 µM (inactive) | > 100 µM (inactive) | 0.536 µM (active) | > 100 µM (inactive) | > 100 µM (inactive) | > 100 µM (inactive) | > 100 µM (inactive) | > 100 µM (inactive) | > 100 µM (inactive) | > 100 µM (inactive) | > 100 µM (inactive) | > 100 µM (inactive) | > 100 µM (inactive) |
| C[N+](C)(CCCn1ccnc1[N+](=O)[O-])CCCn1ccnc1[N+](=O)[O-] | > 100 µM (inactive) | > 100 µM (inactive) |  | > 100 µM (inactive) | > 100 µM (inactive) | > 100 µM (inactive) | > 100 µM (inactive) | > 100 µM (inactive) | > 100 µM (inactive) | > 100 µM (inactive) | > 100 µM (inactive) | > 100 µM (inactive) | > 100 µM (inactive) | > 100 µM (inactive) | > 100 µM (inactive) | > 100 µM (inactive) | > 100 µM (inactive) | > 100 µM (inactive) | > 100 µM (inactive) |
